Results from patent US20250235508A1, “MODIFIED THERAPEUTIC AGENTS AND COMPOSITIONS THEREOF” (THE SCRIPPS RESEARCH INSTITUTE, priority 2015, published 2025).
Starred links: 1 amine or outer side, 2 acyl side, 3 side chain; linkers in the order of their positions; H or OH if unused. Positions of bridges follow the written chain, without caps; N, C: chain ends. Non-standard residues stand in square brackets, D forms with d. Residues, ends and D or L forms follow the SMILES beside them. Glutaryl = O=C(CCCC(=O)[*:2])[*:1]

What was measured:
[1] = target: T1, human glucagon-like peptide 1 receptor (GLP-1R) (Homo sapiens, UniProt P43220); test: GLP-1R receptor-mediated CRE Luc reporter assay (receptor-mediated cAMP synthesis); type: cell-based; conditions: HEK293-GLP-1R-CRE cells, luciferase reporter
T1 construct: expressed in transfected cells; host or cells: HEK293 (CRE-HEK293)
Protocol: HEK293 cells were infected with lent virus encoding firefly luciferase gene under the control of CRE promoter, as described in the manual (Qiagen, Netherlands) and then were selected using 1 μg/mL puromycin (Life technologies, Carlsbad) for 1 week. The survived cells were named as CRE-HEK293, expanded and then transfected with a G418 selective mammalian expression plasmid encoding human GCGR, GLP-1R, GIPR or GLP-2R. […] Single colony stable cell lines overexpressing both CRE-luciferase and GCGR, GLP-1R, GIPR, or GLP-2R were then established for in vitro activity assays. These four stable cell lines were named as HEK293-GCGR-CRE, HEK293-GLP-1R-CRE, HEK293-GIPR-CRE, and HEK293-GLP-2R-CRE. […] Cells were treated with different peptides in a dose dependent manner.

[2] = in vivo; conditions: female, CD-1, mouse, 0.3 mg/kg
Protocol: (§2) Female CD-1 mice obtained from Charles River Limited were used after overnight food deprivation for in vivo PK study. Peptides were dissolved in pH adjusted Phosphate buffered saline (PBS). 100 μL of each peptide (0.3 mg/kg) was administrated into each mouse through either i.v. or s.c route. Food was provided to mice immediately after bleeding at 30 minute. Blood were extracted into heparinized tubes and centrifuged at 3,000×g for 15 min. The resulting supernatant plasma were then stored at −80° C. for activity assays. The concentrations of peptides in plasma at each time point were determined by activity assay described above and in vivo half-life of each peptide was calculated by using Winnonlin Phoenix software (Pharsight Corp, St. Louis, MO).

[3] = target: T2, human glucagon receptor (GCGR) (Homo sapiens, UniProt P47871); test: GCGR receptor-mediated CRE Luc reporter assay (receptor-mediated cAMP synthesis); type: cell-based; conditions: HEK293-GCGR-CRE cells, luciferase reporter
T2 construct: expressed in transfected cells; host or cells: HEK293 (CRE-HEK293)
Protocol: (§1) CREB responsive luciferase stable HEK 293 cell line overexpressing human glucagon receptor (GCGR), glucagon-like peptide 1 receptor (GLP-1R), glucose-dependent insulinotropic polypeptide receptor (GIPR), glucagon-like peptide 2 receptor (GLP-2R) was generated as follows. HEK293 cells were infected with lent virus encoding firefly luciferase gene under the control of CRE promoter, as described in the manual (Qiagen, Netherlands) and then were selected using 1 μg/mL puromycin (Life technologies, Carlsbad) for 1 week. The survived cells were named as CRE-HEK293, expanded and then transfected with a G418 selective mammalian expression plasmid encoding human GCGR, GLP-1R, GIPR or GLP-2R. In brief, GCGR, GLP-1R, GIPR, or GLP-2R plasmid was transfected into CRE-HEK293 cells using Lipofectamine 2000 and selected with 400 μg/mL geneticin (Life technologies, Carlsbad, CA). Single colony stable cell lines overexpressing both CRE-luciferase and GCGR, GLP-1R, GIPR, or GLP-2R were then established for in vitro activity assays. […] On the next day, 10 μl of Bright-Glo reagent (Promega, Madison, WI) were added into each well and firefly luminescence was determined using an Envision multilabel plate reader (PerkinElmer, Waltham, MA). EC50 of each peptide was calculated using GraphPad Prism 6 software (GraphPad, San Diego, CA). […]

[4] = In vivo pharmacokinetic (PK) study in CD-1 mice; conditions: female, CD-1, mouse, plasma, 0.3 mg/kg
Protocol: as §2

[5] = target: T3, human glucagon-like peptide 2 receptor (GLP-2R) (Homo sapiens, UniProt O95838); test: GLP-2R receptor-mediated CRE Luc reporter assay (receptor-mediated cAMP synthesis); type: cell-based; conditions: HEK293-GLP-2R-CRE cells, luciferase reporter
T3 construct: expressed in transfected cells; host or cells: HEK293 (CRE-HEK293)
T3 sequence (O95838 1-553): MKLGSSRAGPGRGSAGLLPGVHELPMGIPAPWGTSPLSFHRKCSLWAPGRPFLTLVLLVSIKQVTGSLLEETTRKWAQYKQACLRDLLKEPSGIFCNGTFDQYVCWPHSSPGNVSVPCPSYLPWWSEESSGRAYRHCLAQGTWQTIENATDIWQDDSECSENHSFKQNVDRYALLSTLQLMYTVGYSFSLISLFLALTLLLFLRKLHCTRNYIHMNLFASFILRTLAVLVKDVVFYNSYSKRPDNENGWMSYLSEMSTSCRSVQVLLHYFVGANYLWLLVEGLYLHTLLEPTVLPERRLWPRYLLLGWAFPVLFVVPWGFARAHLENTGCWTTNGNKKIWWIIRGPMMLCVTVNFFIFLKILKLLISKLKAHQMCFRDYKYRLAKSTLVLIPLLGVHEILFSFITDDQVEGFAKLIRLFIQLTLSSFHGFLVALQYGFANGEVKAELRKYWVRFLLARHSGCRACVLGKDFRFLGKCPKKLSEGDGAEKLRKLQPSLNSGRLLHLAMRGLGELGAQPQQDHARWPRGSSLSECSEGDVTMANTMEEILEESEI
Protocol: as §1

T2 sequence (P47871 26-477): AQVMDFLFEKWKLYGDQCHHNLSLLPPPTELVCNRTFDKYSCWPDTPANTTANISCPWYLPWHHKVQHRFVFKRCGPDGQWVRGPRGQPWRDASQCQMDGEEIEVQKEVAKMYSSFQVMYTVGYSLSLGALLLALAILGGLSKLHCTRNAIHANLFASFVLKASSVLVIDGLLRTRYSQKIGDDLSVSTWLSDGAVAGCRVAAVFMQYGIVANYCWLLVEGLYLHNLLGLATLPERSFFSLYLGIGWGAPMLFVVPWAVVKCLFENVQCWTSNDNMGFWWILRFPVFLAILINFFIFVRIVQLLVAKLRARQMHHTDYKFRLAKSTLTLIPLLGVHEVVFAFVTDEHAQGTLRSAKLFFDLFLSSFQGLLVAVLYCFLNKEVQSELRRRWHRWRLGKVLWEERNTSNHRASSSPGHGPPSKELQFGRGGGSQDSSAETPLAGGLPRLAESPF
T1 sequence (P43220 24-463): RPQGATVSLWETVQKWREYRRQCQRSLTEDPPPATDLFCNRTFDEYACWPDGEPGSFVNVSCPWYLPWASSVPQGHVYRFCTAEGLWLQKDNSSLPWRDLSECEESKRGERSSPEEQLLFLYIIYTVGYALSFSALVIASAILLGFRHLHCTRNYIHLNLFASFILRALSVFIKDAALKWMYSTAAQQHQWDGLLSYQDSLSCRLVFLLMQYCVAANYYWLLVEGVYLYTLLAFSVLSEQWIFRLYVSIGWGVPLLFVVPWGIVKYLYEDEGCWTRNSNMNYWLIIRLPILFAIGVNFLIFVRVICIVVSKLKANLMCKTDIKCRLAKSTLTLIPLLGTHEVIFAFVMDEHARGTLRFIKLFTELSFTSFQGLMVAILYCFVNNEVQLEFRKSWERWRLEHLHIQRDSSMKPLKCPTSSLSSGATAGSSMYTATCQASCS

Row | half-life ([2]; iv) | half-life ([2]; sc) | half-life ([4]; iv) | half-life ([4]; sc) | EC50 [5] | SMILES | EC50 [1] | EC50 [3]
1 | 342 min | 480 min | – | – | – | CC[C@H](C)[C@@H]1NC(=O)[C@H](Cc2ccccc2)NC(=O)[C@H](CCC(=O)O)NC(=O)[C@H](CCCCN)NC(=O)[C@H](C)NC(=O)[C@H](C)NC(=O)[C@@H](NC(=O)[C@H](CCC(=O)O)NC(=O)[C@H](CC(=O)O)NC(=O)[C@H](CC(C)C)NC(=O)[C@H](Cc2ccc(O)cc2)NC(=O)[C@H](CCCCN)NC(=O)[C@H](CO)NC(=O)[C@H](Cc2ccc(O)cc2)NC(=O)[C@H](CC(=O)O)NC(=O)[C@H](CO)NC(=O)[C@@H](NC(=O)[C@H](Cc2ccccc2)NC(=O)[C@@H](NC(=O)CNC(=O)[C@H](CCC(N)=O)NC(=O)[C@@H](CO)NC(=O)[C@@H](N)Cc2c[nH]cn2)[C@@H](C)O)[C@@H](C)O)CCCCNC(=O)CN(C(=O)CCNC(=O)CCOCCOCCOCCNC(=O)CCCCCCCCCCCCCCCCC(=O)O)CC(=O)NCCCC[C@@H](C(=O)N[C@@H](Cc2c[nH]c3ccccc23)C(=O)N[C@@H](CC(C)C)C(=O)N[C@@H](CC(C)C)C(=O)N[C@@H](CCCNC(=N)N)C(=O)N[C@@H](C)C(N)=O)NC1=O [mTA4] | 0.03 nM | 0.15 nM
2 | – | – | – | – | – | CC[C@H](C)[C@@H]1NC(=O)[C@H](Cc2ccccc2)NC(=O)[C@H](CCC(=O)O)NC(=O)[C@H](CCCCN)NC(=O)[C@H](C)NC(=O)[C@H](C)NC(=O)[C@@H](NC(=O)[C@H](CCC(=O)O)NC(=O)[C@H](CC(=O)O)NC(=O)[C@H](CC(C)C)NC(=O)[C@H](Cc2ccc(O)cc2)NC(=O)[C@H](CCCCN)NC(=O)[C@H](CO)NC(=O)[C@H](Cc2ccc(O)cc2)NC(=O)[C@H](CC(=O)O)NC(=O)[C@H](CO)NC(=O)[C@@H](NC(=O)[C@H](Cc2ccccc2)NC(=O)[C@@H](NC(=O)CNC(=O)[C@H](CCC(N)=O)NC(=O)[C@@H](CO)NC(=O)[C@@H](N)Cc2c[nH]cn2)[C@@H](C)O)[C@@H](C)O)CCCCNC(=O)CCCC(=O)NCCCC[C@@H](C(=O)N[C@@H](Cc2c[nH]c3ccccc23)C(=O)N[C@@H](CC(C)C)C(=O)N[C@@H](CC(C)C)C(=O)N[C@@H](CC(N)=O)C(=O)NCC(=O)NCC(=O)N2CCC[C@H]2C(=O)N[C@@H](CO)C(=O)N[C@@H](CO)C(=O)NCC(=O)N[C@@H](C)C(=O)N2CCC[C@H]2C(=O)N2CCC[C@H]2C(=O)N2CCC[C@H]2C(=O)N[C@@H](CO)C(N)=O)NC1=O [mTA5] (H-H[dS]QGTFTSDYSKYLDEKAAKEFIKWLLNGGPSSGAPPPS-NH2; linker 17-24 via Glutaryl) | 0.02 nM | 0.07 nM
3 | – | – | 180 min | 240 min | 0.068 nM | CCCCCCCCCCCCCC(=O)NCCOCCOCCOCCC(=O)NCCC(=O)N1CC(=O)NCCCC[C@@H](C(=O)N[C@@H](C)C(=O)N[C@@H](CCCNC(=N)N)C(=O)N[C@@H](CC(=O)O)C(=O)N[C@@H](Cc2ccccc2)C(=O)N[C@H](C(=O)N[C@@H](CC(N)=O)C(=O)N[C@@H](Cc2c[nH]c3ccccc23)C(=O)N[C@@H](CC(C)C)C(=O)N[C@H](C(=O)N[C@@H](CCC(N)=O)C(=O)N[C@H](C(=O)N[C@@H](CCCCN)C(=O)N[C@H](C(=O)N[C@H](C(=O)N[C@@H](CC(=O)O)C(N)=O)[C@@H](C)O)[C@@H](C)CC)[C@@H](C)O)[C@@H](C)CC)[C@@H](C)CC)NC(=O)[C@H](CC(C)C)NC(=O)[C@H](CC(N)=O)NC(=O)[C@H](CC(=O)O)NC(=O)[C@H](CC(C)C)NC(=O)[C@H]([C@@H](C)CC)NC(=O)[C@H]([C@@H](C)O)NC(=O)[C@@H](NC(=O)[C@H](CCSC)NC(=O)[C@H](CCC(=O)O)NC(=O)[C@H](CC(=O)O)NC(=O)[C@H](CO)NC(=O)[C@H](Cc2ccccc2)NC(=O)[C@H](CO)NC(=O)CNC(=O)[C@H](CC(=O)O)NC(=O)CNC(=O)[C@@H](N)Cc2c[nH]cn2)CCCCNC(=O)C1 [mTA7] | – | –
